# Data as given in patent US20240208968A1, “ALPHA V BETA 6 AND ALPHA V BETA 1 INTEGRIN INHIBITORS AND USES THEREOF” (DiCE Molecules SV, Inc., priority 2021, published 2024).
# How the values were obtained:
# αvβ6 = αvβ6 (Homo sapiens, UniProt P06756+P18564); experiment: Solid Phase Integrin αvβ6 Assay; format: binding
# Summary of the method: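 Inhibition of αvβ6 binding to immobilized recombinant TGFb1-LAP (1 μg/mL coating), 1 h at room temperature with 1 mM MnCl2 in BSA/TBST buffer, integrin diluted to 0.2 μg/mL before addition. Streptavidin-HRP/TMB read-out; four-parameter logistic fitting gave IC50.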
# αvβ1 = αvβ1 (Homo sapiens, UniProt P05556+P06756); experiment: Solid Phase Integrin αvβ1 Assay; format: binding
# Summary of the method: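 Compound competes for αvβ1 binding to immobilized TGFb1-LAP (1 µg/mL coat) in Mn2+ (1 mM MnCl2), 2% BSA binding buffer over 90 min at room temperature, integrin added at 0.2 µg/mL. Read-out: streptavidin-HRP/TMB; IC50 from Levenberg-Marquardt four-parameter fit.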
# αvβ6, sequence (P06756 31-992 limits assumed): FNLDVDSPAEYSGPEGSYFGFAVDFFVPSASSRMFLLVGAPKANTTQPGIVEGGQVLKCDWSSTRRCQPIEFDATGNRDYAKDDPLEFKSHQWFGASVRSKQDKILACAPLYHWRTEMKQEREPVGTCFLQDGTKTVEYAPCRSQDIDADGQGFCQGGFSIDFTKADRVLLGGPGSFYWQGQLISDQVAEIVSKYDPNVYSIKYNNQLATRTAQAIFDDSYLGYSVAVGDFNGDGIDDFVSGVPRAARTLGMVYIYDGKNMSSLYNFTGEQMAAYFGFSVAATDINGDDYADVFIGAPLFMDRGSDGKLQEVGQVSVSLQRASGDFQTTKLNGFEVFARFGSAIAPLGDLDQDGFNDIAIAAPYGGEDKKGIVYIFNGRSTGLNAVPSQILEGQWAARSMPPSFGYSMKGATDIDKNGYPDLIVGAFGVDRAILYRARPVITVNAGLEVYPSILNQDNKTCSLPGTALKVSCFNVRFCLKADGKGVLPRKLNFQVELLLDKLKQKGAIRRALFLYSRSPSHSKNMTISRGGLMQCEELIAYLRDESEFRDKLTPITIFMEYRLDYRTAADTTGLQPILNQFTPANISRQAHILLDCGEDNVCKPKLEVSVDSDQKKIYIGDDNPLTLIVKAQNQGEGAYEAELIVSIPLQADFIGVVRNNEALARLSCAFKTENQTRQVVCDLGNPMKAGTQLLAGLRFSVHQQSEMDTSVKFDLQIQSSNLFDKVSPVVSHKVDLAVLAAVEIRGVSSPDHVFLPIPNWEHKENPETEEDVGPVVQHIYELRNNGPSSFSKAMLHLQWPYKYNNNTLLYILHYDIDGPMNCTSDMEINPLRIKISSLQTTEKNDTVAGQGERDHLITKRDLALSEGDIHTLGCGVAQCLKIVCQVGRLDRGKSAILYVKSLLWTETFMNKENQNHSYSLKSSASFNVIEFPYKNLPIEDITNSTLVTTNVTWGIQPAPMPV
# αvβ6, sequence (P18564 22-707 limits assumed): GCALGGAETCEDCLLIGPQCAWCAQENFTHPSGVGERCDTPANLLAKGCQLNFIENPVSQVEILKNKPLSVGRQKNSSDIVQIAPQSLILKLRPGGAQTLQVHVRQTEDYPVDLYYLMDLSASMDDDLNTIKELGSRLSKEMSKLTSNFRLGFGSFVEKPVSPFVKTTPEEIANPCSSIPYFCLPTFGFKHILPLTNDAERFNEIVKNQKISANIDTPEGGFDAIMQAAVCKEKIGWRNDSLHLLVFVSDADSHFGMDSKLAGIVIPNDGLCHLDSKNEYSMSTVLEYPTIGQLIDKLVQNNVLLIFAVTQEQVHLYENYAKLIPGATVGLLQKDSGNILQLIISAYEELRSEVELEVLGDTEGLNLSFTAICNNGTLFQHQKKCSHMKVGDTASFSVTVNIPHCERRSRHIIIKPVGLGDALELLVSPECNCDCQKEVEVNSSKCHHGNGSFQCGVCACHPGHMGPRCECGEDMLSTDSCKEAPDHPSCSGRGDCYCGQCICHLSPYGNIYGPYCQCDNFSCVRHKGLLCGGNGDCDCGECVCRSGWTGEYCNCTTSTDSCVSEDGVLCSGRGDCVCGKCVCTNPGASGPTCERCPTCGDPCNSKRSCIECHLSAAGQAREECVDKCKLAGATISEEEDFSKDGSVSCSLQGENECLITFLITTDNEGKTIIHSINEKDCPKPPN
# αvβ1, sequence (P06756 31-992 limits assumed): as the sequence (P06756 31-992 limits assumed) above
# αvβ1, sequence (P05556 21-728 limits assumed): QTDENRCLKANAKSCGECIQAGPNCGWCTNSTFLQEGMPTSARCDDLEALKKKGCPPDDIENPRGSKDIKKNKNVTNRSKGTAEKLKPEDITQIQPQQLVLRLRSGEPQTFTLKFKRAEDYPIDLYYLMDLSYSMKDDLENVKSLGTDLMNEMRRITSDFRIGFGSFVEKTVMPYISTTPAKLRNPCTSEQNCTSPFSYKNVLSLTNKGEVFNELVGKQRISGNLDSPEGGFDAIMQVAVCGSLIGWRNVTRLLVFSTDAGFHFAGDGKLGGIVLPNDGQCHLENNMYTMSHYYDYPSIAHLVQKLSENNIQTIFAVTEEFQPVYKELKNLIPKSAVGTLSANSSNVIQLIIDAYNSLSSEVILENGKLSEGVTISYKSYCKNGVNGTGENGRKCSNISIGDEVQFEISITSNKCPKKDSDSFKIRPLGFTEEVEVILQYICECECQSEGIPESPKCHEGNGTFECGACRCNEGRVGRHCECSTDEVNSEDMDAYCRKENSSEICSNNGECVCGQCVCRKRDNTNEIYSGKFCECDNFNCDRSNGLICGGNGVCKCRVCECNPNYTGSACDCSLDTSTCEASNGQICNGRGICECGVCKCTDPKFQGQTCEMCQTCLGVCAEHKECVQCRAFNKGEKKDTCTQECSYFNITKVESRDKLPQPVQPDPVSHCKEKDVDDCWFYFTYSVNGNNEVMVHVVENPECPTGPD
Structure (SMILES),IC50 (αvβ6),IC50 (αvβ1)
O=C(O)[C@@H](CCO[C@@H]1CCCN(CCCCc2ccc3c(n2)NCCC3)C1)NC(=O)C12CCC(CC1)CC2 [Compound 384],> 1000 nM,> 1000 nM
O=C(O)[C@H](CCO[C@@H]1CCCN(CCCCc2ccc3c(n2)NCCC3)C1)Nc1ncnc2ccccc12 [Compound 385],100 to 1000 nM,> 1000 nM
O=C(O)[C@H](CCO[C@@H]1CCCN(CCc2ccc3c(n2)NCCC3)C1)Nc1ncnc2ccccc12 [Compound 386],> 1000 nM,> 1000 nM
O=C(O)[C@H](CCO[C@@H]1CCCN(Cc2ccc3c(n2)NCCC3)C1)Nc1ncnc2ccccc12 [Compound 387],100 to 1000 nM,< 100 nM
O=C(O)[C@H](CO[C@@H]1CCCN(CCCc2ccc3c(n2)NCCC3)C1)Nc1ncnc2ccccc12 [Compound 388],< 100 nM,100 to 1000 nM
O=C(O)[C@@H](CO[C@@H]1CCCN(Cc2ccc3c(n2)NCCC3)C1)c1ccccc1 [Compound 389],> 1000 nM,> 1000 nM
O=C(O)C[C@@H](O[C@@H]1CCCN(Cc2ccc3c(n2)NCCC3)C1)c1ccccc1 [Compound 390],> 1000 nM,> 1000 nM
O=C(O)C[C@@H](O[C@@H]1CCCN(CCCCc2ccc3c(n2)NCCC3)C1)c1ccccc1 [Compound 391],> 1000 nM,> 1000 nM
O=C(O)C[C@H](O[C@@H]1CCCN(Cc2ccc3c(n2)NCCC3)C1)c1ccccc1 [Compound 392],> 1000 nM,> 1000 nM
O=C(O)C[C@H](O[C@@H]1CCCN(CCCCc2ccc3c(n2)NCCC3)C1)c1ccccc1 [Compound 393],> 1000 nM,> 1000 nM
O=C(O)[C@@H](CO[C@@H]1CCCN(CCCCc2ccc3c(n2)NCCC3)C1)c1ccccc1 [Compound 394],> 1000 nM,> 1000 nM
O=C(O)[C@H](CO[C@@H]1CCCN(CCCCc2ccc3c(n2)NCCC3)C1)c1ccccc1 [Compound 395],> 1000 nM,> 1000 nM
O=C(O)[C@H](CO[C@@H]1CCCN(Cc2ccc3c(n2)NCCC3)C1)c1ccccc1 [Compound 396],> 1000 nM,> 1000 nM
O=C(O)[C@H](CCO[C@@H]1CCCN(Cc2ccc3c(n2)NCCC3)C1)NC(=O)C12CCC(CC1)CC2 [Compound 397],> 1000 nM,100 to 1000 nM
O=C(O)[C@H](CCO[C@@H]1CCCN(CCc2ccc3c(n2)NCCC3)C1)NC(=O)C12CCC(CC1)CC2 [Compound 398],< 100 nM,< 100 nM
O=C(O)[C@H](CCO[C@@H]1CCCN(CCCCc2ccc3c(n2)NCCC3)C1)NC(=O)C12CCC(CC1)CC2 [Compound 399],< 100 nM,< 100 nM
O=C(O)[C@H](CO[C@@H]1CCCN(CCCc2ccc3c(n2)NCCC3)C1)NC(=O)C12CCC(CC1)CC2 [Compound 400],< 100 nM,< 100 nM
O=C(O)[C@@H](CO[C@@H]1CCCN(CCCCc2ccc3c(n2)NCCC3)C1)NC(=O)C12CCC(CC1)CC2 [Compound 401],> 1000 nM,> 1000 nM
O=C(O)[C@H](CO[C@@H]1CCCN(CCCCc2ccc3c(n2)NCCC3)C1)NC(=O)C12CCC(CC1)CC2 [Compound 402],< 100 nM,100 to 1000 nM
O=C(O)[C@@H](CO[C@@H]1CCCN(Cc2ccc3c(n2)NCCC3)C1)NC(=O)C12CCC(CC1)CC2 [Compound 403],> 1000 nM,> 1000 nM
O=C(O)[C@H](CO[C@@H]1CCCN(Cc2ccc3c(n2)NCCC3)C1)NC(=O)C12CCC(CC1)CC2 [Compound 404],> 1000 nM,> 1000 nM
O=C(O)[C@@H](CCO[C@@H]1CCCN(CCCCc2ccc3c(n2)NCCC3)C1)Nc1ncnc2ccccc12 [Compound 405],< 100 nM,100 to 1000 nM
O=C(O)[C@@H](CCO[C@@H]1CCCN(CCc2ccc3c(n2)NCCC3)C1)Nc1ncnc2ccccc12 [Compound 406],100 to 1000 nM,100 to 1000 nM
O=C(O)[C@@H](CCO[C@@H]1CCCN(Cc2ccc3c(n2)NCCC3)C1)Nc1ncnc2ccccc12 [Compound 407],> 1000 nM,> 1000 nM
O=C(O)[C@@H](CO[C@@H]1CCCN(CCCc2ccc3c(n2)NCCC3)C1)Nc1ncnc2ccccc12 [Compound 408],> 1000 nM,> 1000 nM
O=C(O)[C@H](CO[C@@H]1CCCN(CCCCc2ccc3c(n2)NCCC3)C1)Nc1ncnc2ccccc12 [Compound 409],< 100 nM,> 1000 nM
O=C(O)[C@@H](CO[C@@H]1CCCN(CCCCc2ccc3c(n2)NCCC3)C1)Nc1ncnc2ccccc12 [Compound 410],> 1000 nM,> 1000 nM
O=C(O)[C@@H](CO[C@@H]1CCCN(Cc2ccc3c(n2)NCCC3)C1)Nc1ncnc2ccccc12 [Compound 411],> 1000 nM,> 1000 nM

Structure (SMILES),IC50 (αvβ6),IC50 (αvβ1)
O=C(O)C[C@@H](NC(=O)[C@@H]1CCCN(CCCc2ccc3c(n2)NCCC3)C1)c1cccc(OC2COC2)c1 [Compound 412],< 100 nM,< 100 nM
O=C(O)C[C@@H](NC(=O)[C@@H]1CCCN(CCCc2ccc3c(n2)NCCC3)C1)c1cnc2ccccc2c1 [Compound 413],< 100 nM,< 100 nM
O=C(O)C[C@@H](CC(=O)N[C@@H]1CCN(CCCCc2ccc3c(n2)NCCC3)C1)c1ccccc1 [Compound 414],> 1000 nM,< 100 nM
O=C(O)C[C@H](CC(=O)N[C@@H]1CCN(CCCCc2ccc3c(n2)NCCC3)C1)c1ccccc1 [Compound 415],100 to 1000 nM,100 to 1000 nM
O=C(O)C[C@H](CC(=O)N[C@@H]1CCN(C(=O)CCCc2ccc3c(n2)NCCC3)C1)c1ccccc1 [Compound 416],> 1000 nM,> 1000 nM
O=C(O)C[C@@H](CC(=O)N[C@@H]1CCN(C(=O)CCCc2ccc3c(n2)NCCC3)C1)c1ccccc1 [Compound 417],100 to 1000 nM,< 100 nM
O=C(CC[C@H](C(=O)O)c1ccccc1)N[C@@H]1CCN(C(=O)CCCc2ccc3c(n2)NCCC3)C1 [Compound 418],> 1000 nM,> 1000 nM
O=C(CC[C@@H](C(=O)O)c1ccccc1)N[C@@H]1CCN(C(=O)CCCc2ccc3c(n2)NCCC3)C1 [Compound 419],> 1000 nM,> 1000 nM
O=C(CC[C@H](C(=O)O)c1ccccc1)N[C@@H]1CCN(CCCCc2ccc3c(n2)NCCC3)C1 [Compound 420],> 1000 nM,> 1000 nM
O=C(CC[C@@H](C(=O)O)c1ccccc1)N[C@@H]1CCN(CCCCc2ccc3c(n2)NCCC3)C1 [Compound 421],> 1000 nM,> 1000 nM
O=C(CC[C@H](C(=O)O)c1ccccc1)N[C@H]1CCN(CCCCc2ccc3c(n2)NCCC3)C1 [Compound 422],> 1000 nM,> 1000 nM
O=C(CC[C@@H](C(=O)O)c1ccccc1)N[C@H]1CCN(C(=O)CCCc2ccc3c(n2)NCCC3)C1 [Compound 423],> 1000 nM,> 1000 nM
O=C(CC[C@H](C(=O)O)c1ccccc1)N[C@H]1CCN(CCCCc2ccc3c(n2)NCCC3)C1 [Compound 424],> 1000 nM,> 1000 nM
O=C(CC[C@@H](C(=O)O)c1ccccc1)N[C@H]1CCN(CCCCc2ccc3c(n2)NCCC3)C1 [Compound 425],> 1000 nM,> 1000 nM
O=C(CC[C@H](NC(=O)C12CCC(CC1)CC2)C(=O)O)N[C@@H]1CCN(CCCCc2ccc3c(n2)NCCC3)C1 [Compound 426],< 100 nM,< 100 nM
O=C(CC[C@@H](NC(=O)C12CCC(CC1)CC2)C(=O)O)N[C@@H]1CCN(CCCCc2ccc3c(n2)NCCC3)C1 [Compound 427],> 1000 nM,> 1000 nM
O=C(CC[C@H](NC(=O)C12CCC(CC1)CC2)C(=O)O)N[C@@H]1CCN(C(=O)CCCc2ccc3c(n2)NCCC3)C1 [Compound 428],< 100 nM,< 100 nM
O=C(CC[C@@H](NC(=O)C12CCC(CC1)CC2)C(=O)O)N[C@@H]1CCN(C(=O)CCCc2ccc3c(n2)NCCC3)C1 [Compound 429],> 1000 nM,> 1000 nM
O=C(CC[C@H](NC(=O)C12CCC(CC1)CC2)C(=O)O)N[C@H]1CCN(CCCCc2ccc3c(n2)NCCC3)C1 [Compound 430],< 100 nM,< 100 nM
O=C(CC[C@@H](NC(=O)C12CCC(CC1)CC2)C(=O)O)N[C@H]1CCN(CCCCc2ccc3c(n2)NCCC3)C1 [Compound 431],> 1000 nM,> 1000 nM
O=C(CC[C@H](NC(=O)C12CCC(CC1)CC2)C(=O)O)N[C@H]1CCN(C(=O)CCCc2ccc3c(n2)NCCC3)C1 [Compound 432],< 100 nM,< 100 nM
O=C(CC[C@@H](NC(=O)C12CCC(CC1)CC2)C(=O)O)N[C@H]1CCN(C(=O)CCCc2ccc3c(n2)NCCC3)C1 [Compound 433],> 1000 nM,> 1000 nM
O=C(CC[C@H](NC(=O)[C@H]1CCCN1S(=O)(=O)c1ccccc1)C(=O)O)N[C@H]1CCN(CCCCc2ccc3c(n2)NCCC3)C1 [Compound 434],< 100 nM,< 100 nM
O=C(CC[C@H](NC(=O)[C@@H]1CCCN1S(=O)(=O)c1ccccc1)C(=O)O)N[C@H]1CCN(CCCCc2ccc3c(n2)NCCC3)C1 [Compound 435],100 to 1000 nM,< 100 nM
O=C(CC[C@@H](NC(=O)[C@H]1CCCN1S(=O)(=O)c1ccccc1)C(=O)O)N[C@H]1CCN(CCCCc2ccc3c(n2)NCCC3)C1 [Compound 436],> 1000 nM,100 to 1000 nM
O=C(CC[C@@H](NC(=O)[C@@H]1CCCN1S(=O)(=O)c1ccccc1)C(=O)O)N[C@H]1CCN(CCCCc2ccc3c(n2)NCCC3)C1 [Compound 437],> 1000 nM,< 100 nM
O=C(CC[C@H](NC(=O)[C@H]1CCCN1S(=O)(=O)c1ccccc1)C(=O)O)N[C@H]1CCN(C(=O)CCCc2ccc3c(n2)NCCC3)C1 [Compound 438],< 100 nM,< 100 nM
